US20210330611A1, “THERAPY FOR NEUROLOGICAL DISEASES/DISORDERS” (priority 2020, published 2021)
Counter-ions that a name gives are not always drawn.

How the values were obtained:
[1] = tested on: primary rat microglia; assay: Cell toxicity (dead cells, size <150 μm2) in coated fibrin (cFib) assay; conditions: primary HTS, 10 μM, fibrin assay, dead cells size <150 μm2;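 further: share of dead cells sized under 150 µm2 at 10 µM in fibrin-stimulated microglia HTS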
[2] = tested on: fibrin-induced microglia activation; assay: Image-based assay of fibrin-induced microglia activation (HTS and dose response); type: cell-based, rat; conditions: primary HTS, 10 μM, fibrin-stimulated primary microglia; for inhibition at 10 µM: Rattus norvegicus, Microglia, read-out: Fibrin % inhibition
[3] = tested on: LPS-induced microglia activation; assay: Image-based assay of LPS-induced microglia activation (HTS and dose response); type: cell-based, rat; conditions: primary HTS, 10 μM, LPS-stimulated primary microglia; for inhibition at 10 µM: Rattus norvegicus, Microglia, read-out: LPS % inhibition
[4] = tested on: fibrin- and LPS-induced microglia activation; assay: cells; type: cell-based, rat; conditions: primary HTS, 10 μM
[5] = tested on: primary rat microglia; assay: Cell toxicity (dead cells, size <150 μm2) in LPS assay; conditions: primary HTS, 10 μM, LPS assay, dead cells size <150 μm2

SMILES	Fibrin % cell toxicity [1] [%]	inhibition at 10 µM [2] [%]	inhibition at 10 µM [3] [%]	Quadrant (FIG. 5b) [4]	LPS % cell toxicity [5] [%]	Fibrin % inhibition [2] [%]	LPS % inhibition [3] [%]
CCCCOc1ccc(CC(=O)NO)cc1 [Bufexamac]	1	-2	17	Q4	0	–	–
COc1cc(OC)c(C(=O)CCCN2CCCC2)c(OC)c1 [Buflomedil, Buflomedil Hydrochloride]	1	–	–	Q4	1	−37	13
CCCCNc1cc(C(=O)O)cc(S(N)(=O)=O)c1Oc1ccccc1 [Bumetanide]	1	-3	18	Q4	1	–	–
CCCCN1CCCCC1C(=O)Nc1c(C)cccc1C (stereo not shown) [Bupivacaine]	1	12	23	Q4	0	–	–
O=C(NCc1ccccc1)OCCO [Buramate]	1	9	17	Q4	0	–	–
CCCCN(CCCC)CCCOC(=O)c1ccc(N)cc1 [Butacaine]	0	-18	3	Q4	0	–	–
CCCCOC(=O)c1ccc(N)cc1 [Butamben]	0	-25	14	Q4	1	–	–
CN(Cc1ccc(C(C)(C)C)cc1)Cc1cccc2ccccc12 [Butenafine]	1	-4	-8	Q4	0	–	–
Clc1ccc(CCC(Cn2ccnc2)Sc2c(Cl)cccc2Cl)cc1 (stereo not shown) [Butoconazole]	0	-51	10	Q4	0	–	–
COc1ccc(O)c(C(C)(C)C)c1 [Butylated Hydroxyanisole]	1	–	–	Q4	0	−17	26
CCCCOC(=O)c1ccc(O)cc1 [Butylparaben]	1	-16	20	Q4	0	–	–
C=CCN1C[C@H](C(=O)N(CCCN(C)C)C(=O)NCC)C[C@@H]2c3cccc4[nH]cc(c34)C[C@H]21 [Cabergoline]	1	20	33	Q4	1	–	–
C=C1CC[C@H](O)C/C1=C/C=C1\CCC[C@]2(C)[C@@H]([C@H](C)CCCC(C)(C)O)CC[C@@H]12 [Calcidiol]	1	14	8	Q4	0	–	–
C=C1/C(=C\C=C2/CCC[C@]3(C)[C@@H]([C@H](C)/C=C/[C@@H](O)C4CC4)CC[C@@H]23)C[C@@H](O)C[C@@H]1O [Calcipotriol]	1	2	-8	Q4	0	–	–
C=C1/C(=C\C=C2/CCC[C@]3(C)[C@@H]([C@H](C)CCCC(C)(C)O)CC[C@@H]23)C[C@@H](O)C[C@@H]1O [Calcitriol]	0	-46	0	Q4	1	–	–
O=C([O-])C(O)[C@H](O)[C@@H](O)[C@H](O)[C@H](O)CO.O=C([O-])C(O)[C@H](O)[C@@H](O)[C@H](O)[C@H](O)CO.[Ca+2] (stereo partly shown) [Calcium Gluceptate]	1	–	–	Q4	0	8	8
CCN(CC)CCNC(C(=O)OCCC(C)C)c1ccccc1 (stereo not shown) [Camylofine Dihydrochloride]	1	-27	15	Q4	1	–	–
CCOc1nc2cccc(C(=O)OC(C)OC(=O)OC3CCCCC3)c2n1Cc1ccc(-c2ccccc2-c2nn[nH]n2)cc1 (stereo not shown) [Candesartan Cilextil]	1	–	–	Q4	0	−5	10
CCOc1nc2cccc(C(=O)O)c2n1Cc1ccc(-c2ccccc2-c2nnn[nH]2)cc1 [Candesartan]	1	9	11	Q4	0	–	–
C[C@]12CCC(=O)C=C1C=C[C@@H]1[C@@H]2CC[C@@]2(C)[C@H]1CC[C@@]21CCC(=O)O1 [Canrenone]	1	-10	19	Q4	0	–	–
COc1cc(C(=O)NCCCCCC(=O)O)cc(OC)c1OC [Capobenic Acid]	1	9	16	Q4	0	–	–
COc1cc(CNC(=O)CCCC/C=C/C(C)C)ccc1O [Capsaicin]	1	-45	9	Q4	0	–	–
C[C@H](CS)C(=O)N1CCC[C@H]1C(=O)O [Captopril]	1	-11	12	Q4	1	–	–
C[N+](C)(C)CCOC(N)=O [Carbachol]	1	-18	6	Q4	0	–	–
COC(=O)N/N=C/c1c[n+]([O-])c2ccccc2[n+]1[O-] [Carbadox]	1	-2	11	Q4	1	–	–
NC(=O)N1c2ccccc2C=Cc2ccccc21 [Carbamazepine]	0	-25	4	Q4	0	–	–
CC1(C)S[C@@H]2[C@H](NC(=O)C(C(=O)O)c3ccccc3)C(=O)N2[C@H]1C(=O)O (stereo partly shown) [Carbenicillin]	1	-4	4	Q4	0	–	–
CC1(C)[C@@H](OC(=O)CCC(=O)O)CC[C@]2(C)[C@H]3C(=O)C=C4[C@@H]5C[C@@](C)(C(=O)O)CC[C@]5(C)CC[C@@]4(C)[C@]3(C)CC[C@@H]12 [Carbenoxolone Sodium]	0	16	6	Q4	0	–	–
CCOC(=O)n1ccn(C)c1=S [Carbimazole]	0	-32	8	Q4	0	–	–
